Measurements published in US12227496B2 (BRISTOL-MYERS SQUIBB COMPANY, priority 2019, dated 2025).

Target: T1, human FXR (Homo sapiens, UniProt Q96RI1)
T1 construct: expressed in transfected cells; host or cells: HEK293 cells stably carrying a 5xGal4-response-element firefly luciferase reporter, transiently transfected with pcDNA3.1-Gal4-FXR
T1 sequence (Q96RI1 262-486 limits assumed): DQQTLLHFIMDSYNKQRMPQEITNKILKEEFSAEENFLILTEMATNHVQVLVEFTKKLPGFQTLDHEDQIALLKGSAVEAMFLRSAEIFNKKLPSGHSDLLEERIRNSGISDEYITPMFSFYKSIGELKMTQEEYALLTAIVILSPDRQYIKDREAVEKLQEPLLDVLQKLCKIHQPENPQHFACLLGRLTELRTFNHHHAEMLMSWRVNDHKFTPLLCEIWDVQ
Assay: transient human FXR/Gal4-luciferase reporter assay
Type: cell-based
Details: Gal4-hFXR LBD fusion, luciferase reporter in HEK293 cells; response relative to 8 μM GW-4064
Method in brief: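 HEK293 cells stably carrying a 5×Gal4-response-element firefly luciferase reporter were transiently transfected with Gal4-hFXR. They were then incubated overnight at 37 °C with compound serial dilutions in medium containing 10% charcoal/dextran-stripped FBS. Luminescence was read after Steady-Glo addition.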

SMILES | EC50
O=C(C1CCS(=O)(=O)CC1)N(CC12CCC(c3nc(C4CC4)no3)(CC1)CC2)c1cccc(-c2nc(C3CC3)no2)c1 [Example 18, N-((4-(3-cyclopropyl-1,2,4-oxadiazol-5-yl)bicyclo[2.2.2]octan-1-yl)methyl)-N-(3-(3-cyclopropyl-1,2,4-oxadiazol-5-yl)phenyl)tetrahydro-2H-thiopyran-4-carboxamide 1,1-dioxide] | 1170 nM
O=C(C1CCCOC1)N(CC12CCC(c3nc(C4CC4)no3)(CC1)CC2)c1cccc(-c2nnc(C3CC3)o2)c1 (racemic) [Example 55, N-((4-(3-cyclopropyl-1,2,4-oxadiazol-5-yl)bicyclo[2.2.2]octan-1-yl)methyl)-N-(3-(5-cyclopropyl-1,3,4-oxadiazol-2-yl)phenyl)tetrahydro-2H-pyran-3-carboxamide] | 929 nM
COc1cc(-c2cccc(N(CC34CCC(C#N)(CC3)CC4)C(=O)C3CCCCC3)c2)ccn1 [Example 99, N-((4-cyanobicyclo[2.2.2]octan-1-yl)methyl)-N-(3-(2-methoxypyridin-4-yl)phenyl)cyclohexanecarboxamide] | 1530 nM
CC(C)(C)c1noc(C23CCC(CN(C(=O)C4CCC(F)(F)CC4)c4cccc(-c5cnn6cc(Cl)cnc56)c4)(CC2)CC3)n1 [Example 141, N-((4-(3-(tert-butyl)-1,2,4-oxadiazol-5-yl)bicyclo[2.2.2]octan-1-yl)methyl)-N-(3-(6-chloropyrazolo[1,5-a]pyrimidin-3-yl)phenyl)-4,4-difluorocyclohexane-1-carboxamide] | 549 nM
COC(=O)C1CC1c1cccc(N(CC23CCC(c4nc(C)no4)(CC2)CC3)C(=O)C2CCCCC2)c1 (single isomer, unassigned) [Example 101, Methyl 2-(3-(N-((4-(3-methyl-1,2,4-oxadiazol-5-yl)bicyclo[2.2.2]octan-1-yl)methyl)cyclohexanecarboxamido)phenyl)cyclopropane-1-carboxylate] | 245 nM
CC(C)(O)c1coc(-c2cccc(N(CC34CCC(c5nc(C6CC6)no5)(CC3)CC4)C(=O)C3CCCCC3)c2)n1 [Example 21, N-((4-(3-cyclopropyl-1,2,4-oxadiazol-5-yl)bicyclo[2.2.2]octan-1-yl)methyl)-N-(3-(4-(2-hydroxypropan-2-yl)oxazol-2-yl)phenyl)cyclohexanecarboxamide] | 194 nM
COc1cccc(-c2cccc(N(C(=O)C3CCCCC3)C(C)C34CCC(c5nc(C)no5)(CC3)CC4)c2)c1 (single isomer, unassigned) [Example 94, N-(3′-methoxy-[1,1′-biphenyl]-3-yl)-N-(1-(4-(3-methyl-1,2,4-oxadiazol-5-yl)bicyclo[2.2.2]octan-1-yl)ethyl)cyclohexanecarboxamide] | 3940 nM
CC(F)(F)c1nc(C23CCC(CN(C(=O)C4CCC(F)(F)CC4)c4cccc(-c5ccc(S(C)(=O)=O)cc5)c4)(CC2)CC3)no1 [Example 130, N-((4-(5-(1,1-difluoroethyl)-1,2,4-oxadiazol-3-yl)bicyclo[2.2.2]octan-1-yl)methyl)-4,4-difluoro-N-(4′-(methylsulfonyl)-[1,1′-biphenyl]-3-yl)cyclohexane-1-carboxamide] | 205 nM
Cc1noc(C23CCC(CN(C(=O)C4CCCCC4)c4cccc(-c5cnc(C6CCOCC6)o5)c4)(CC2)CC3)n1 [Example 33, N-((4-(3-methyl-1,2,4-oxadiazol-5-yl)bicyclo[2.2.2]octan-1-yl)methyl)-N-(3-(2-(tetrahydro-2H-pyran-4-yl)oxazol-5-yl)phenyl)cyclohexanecarboxamide] | 949 nM
CCOc1cc(-c2cccc(N(CC34CCC(c5nc(C6CC6)no5)(CC3)CC4)C(=O)C3CCC(F)(F)CC3)c2)ccn1 [Example 79, N-((4-(3-cyclopropyl-1,2,4-oxadiazol-5-yl)bicyclo[2.2.2]octan-1-yl)methyl)-N-(3-(2-ethoxypyridin-4-yl)phenyl)-4,4-difluorocyclohexane-1-carboxamide] | 408 nM
CC1CCN(C(=O)N(CC23CCC(c4nc(C5CC5)no4)(CC2)CC3)c2cccc(-c3nc(C4CC4)no3)c2)CC1 [Example 60, N-((4-(3-cyclopropyl-1,2,4-oxadiazol-5-yl)bicyclo[2.2.2]octan-1-yl)methyl)-N-(3-(3-cyclopropyl-1,2,4-oxadiazol-5-yl)phenyl)-4-methylpiperidine-1-carboxamide] | 1020 nM
O=C(N1CCCCC1)N(CC12CCC(c3nc(C4CC4)no3)(CC1)CC2)c1cccc(-c2nc(C3CC3)no2)c1 [Example 57, N-((4-(3-cyclopropyl-1,2,4-oxadiazol-5-yl)bicyclo[2.2.2]octan-1-yl)methyl)-N-(3-(3-cyclopropyl-1,2,4-oxadiazol-5-yl)phenyl) piperidine-1-carboxamide] | 819 nM
CC(C)(C)c1nc(C23CCC(CN(C(=O)C4CCOCC4)c4cccc(-c5ccc(OC(F)F)cc5)c4)(CC2)CC3)no1 [Example 89, N-((4-(5-(tert-butyl)-1,2,4-oxadiazol-3-yl)bicyclo[2.2.2]octan-1-yl)methyl)-N-(4′-(difluoromethoxy)-[1,1′-biphenyl]-3-yl)tetrahydro-2H-pyran-4-carboxamide] | 96 nM
O=C(N1CCC(O)CC1)N(CC12CCC(c3nc(C4CC4)no3)(CC1)CC2)c1cccc(-c2nc(C3CC3)no2)c1 [Example 61, N-((4-(3-cyclopropyl-1,2,4-oxadiazol-5-yl)bicyclo[2.2.2]octan-1-yl)methyl)-N-(3-(3-cyclopropyl-1,2,4-oxadiazol-5-yl)phenyl)-4-hydroxypiperidine-1-carboxamide] | 3670 nM
COc1ccc(-c2cccc(N(CC34CCC(c5nc(C)no5)(CC3)CC4)C(=O)C3CCCCC3)c2)cc1 [Example 76, N-(4′-methoxy-[1,1′-biphenyl]-3-yl)-N-((4-(3-methyl-1,2,4-oxadiazol-5-yl)bicyclo[2.2.2]octan-1-yl)methyl)cyclohexane carboxamide] | 387 nM
CCOc1ncc(-c2cccc(N(CC34CCC(c5noc(C(C)(C)C)n5)(CC3)CC4)C(=O)C3CCOCC3)c2)cn1 [Example 88, N-((4-(5-(tert-butyl)-1,2,4-oxadiazol-3-yl)bicyclo[2.2.2]octan-1-yl)methyl)-N-(3-(2-ethoxypyrimidin-5-yl)phenyl)tetrahydro-2H-pyran-4-carboxamide] | 227 nM
CC(F)(F)c1nc(C23CCC(CN(C(=O)C4CCOCC4)c4ccc(F)c(-c5ccc(P(C)(C)=O)cc5)c4)(CC2)CC3)no1 [Example 122, N-((4-(5-(1,1-difluoroethyl)-1,2,4-oxadiazol-3-yl)bicyclo[2.2.2]octan-1-yl)methyl)-N-(4′-(dimethylphosphoryl)-6-fluoro-[1,1′-biphenyl]-3-yl)tetrahydro-2H-pyran-4-carboxamide] | 1320 nM
Cc1cnc(C23CCC(CN(C(=O)C4CCCCC4)c4cccc(-c5nc(C6CC6)no5)c4)(CC2)CC3)o1 [Example 35, N-(3-(3-cyclopropyl-1,2,4-oxadiazol-5-yl)phenyl)-N-((4-(5-methyloxazol-2-yl)bicyclo[2.2.2]octan-1-yl)methyl)cyclohexanecarboxamide] | 515 nM
CCc1noc(-c2cccc(N(C(=O)C3CCCCC3)C(C)C34CCC(c5nc(C)no5)(CC3)CC4)c2)n1 (single isomer, unassigned) [Example 70, N-(3-(3-ethyl-1,2,4-oxadiazol-5-yl)phenyl)-N-(1-(4-(3-methyl-1,2,4-oxadiazol-5-yl)bicyclo[2.2.2]octan-1-yl)ethyl)cyclohexanecarboxamide] | 1500 nM
